In patent US20120225909A1, “INDAZOLE ANALOG” (priority 2009, published 2012):
pEC50: −log10 of the molar value.

Assays:
[1] = biological target: T1, human β3-adrenergic receptor (Homo sapiens, UniProt P13945); assay: Test Case 1-B: human β3-adrenergic receptor agonist activity (cAMP-Screen, 96-well); format: cell-based; details: for Emax: 0.5 h, read-out: β3 receptor I.A.; for pEC50 / β3 receptor I.A.: Test Case 1-B; for pEC50: CHO cells, cAMP; for β3 receptor I.A.: maximum response of isoproterenol = 100%
T1 construct: A full-length human β3 gene is obtained from a human genomic library (made by Clontech) using this as the probe; expressed in transfected cells; host or cells: CHO (Chinese hamster ovary) cells, pcDNA3
Summary of the method: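 CHO cells stably transfected with full-length human β3 gene, serum-starved 15 min, then exposed to serially diluted compound in Ham's F-12 with 100 mmol/L HEPES and 1 mmol/L IBMX (diluent concentrations) for 30 min. Cells lysed 30 min at 37 °C; cAMP quantified by cAMP-Screen immunoassay.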

[2] = biological target: T2, human β2-adrenergic receptor (Homo sapiens, UniProt P07550); assay: Test Case 3-B: human β2-adrenergic receptor agonist activity; format: cell-based; details: for Emax: read-out: β2 receptor I.A.; for β2 receptor I.A.: Test Case 3-B, maximum response of isoproterenol = 100%
T2 construct: expressed in transfected cells; host or cells: CHO (Chinese hamster ovary) cells, pcDNA3
Description: Measurement of Human β2-Adrenergic Receptor Agonist Activity
The human β2-adrenergic receptor agonist activity is measured by the same method as in Test Case 1-B using CHO (Chinese hamster ovary) cells transfected by a human β2 gene inserted in pcDNA3 (Invitrogen).

[3] = system: pentobarbital-anesthetized rats; assay: Test Case 9: effects on the blood pressure and heart rate in pentobarbital-anesthetized rats; format: in vivo, rat
Description: Effects on the blood pressure and heart rate in pentobarbital-anesthetized rats
The blood pressure and heart rate of rats under pentobarbital anesthesia are measured, and the effects of rapid intravenous administration of the test compound on the blood pressure and heart rate can be studied. After anesthetizing male SD rats (Japan SLC) by intraperitoneal administration of 50 mg/kg of pentobarbital sodium (Tokyo Chemical Industry Co., Ltd.), 25 mg/kg of pentobarbital sodium is administered subcutaneously as maintenance anesthesia. The left femoral vein is exposed and stripped, and a SP10 polyethylene tube filled with saline (connected to a three-way stopcock via a ¼ venous needle) is inserted and left in place in the vein.
The inside of the left thigh is cut, and the femoral artery is exposed and stripped. A polyethylene tube filled with heparinized physiological saline solution (SP31, connected to a three-way stopcock via a Terumo injection needle 22G) is inserted and connected to a pressure transducer. The blood pressure is measured from the pressure transducer via a strain pressure amplifier (AP-641G, Nihon Kohden). The heart rate is measured with the pulse wave of the blood pressure as a trigger via a heart rate counter (AT-601G, Nihon Kohden). The blood pressure, mean blood pressure, and heart rate are output to a recorder and recorded. Furthermore, the mean blood pressure is recorded via the strain pressure amplifier (AP-641G) using the formula {[…]}.
Specifically, 3 mg/mL of test compound is administered rapidly at a volume of 1 mL/kg. The relative value (%) of the values at each point in time versus the mean blood pressure and heart rate before beginning administration are determined for each individual, and the mean±standard deviation of the relative value (%) at the time of the maximum change in each parameter is determined.

[4] = biological target: T3, human α1A-adrenergic receptor (Homo sapiens, UniProt P35348); assay: Test Case 4-A: human α1A-adrenergic receptor agonist activity (HEK293, Ca flux, Fura-2); format: cell-based; design: expressed in transfected cells; host or cells: HEK293 cells, pcDNA3.1; details: for Emax: HEK293, read-out: α1A receptor I.A.; for α1A receptor I.A.: Test Case 4-A, maximum response of norepinephrine = 100%, Table 4
T3 sequence (P35348 1-466): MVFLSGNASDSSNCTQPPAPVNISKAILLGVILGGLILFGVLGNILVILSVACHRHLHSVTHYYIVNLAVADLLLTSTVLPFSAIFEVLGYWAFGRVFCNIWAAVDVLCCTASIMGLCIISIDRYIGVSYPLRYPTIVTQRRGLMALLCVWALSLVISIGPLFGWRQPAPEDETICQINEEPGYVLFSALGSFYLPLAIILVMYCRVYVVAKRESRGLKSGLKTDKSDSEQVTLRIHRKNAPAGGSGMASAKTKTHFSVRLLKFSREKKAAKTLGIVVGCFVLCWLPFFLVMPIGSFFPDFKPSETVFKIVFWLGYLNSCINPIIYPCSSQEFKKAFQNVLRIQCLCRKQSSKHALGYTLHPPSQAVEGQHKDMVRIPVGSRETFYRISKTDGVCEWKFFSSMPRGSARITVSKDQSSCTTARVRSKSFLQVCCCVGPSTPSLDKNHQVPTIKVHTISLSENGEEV
Summary of the method: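 Fura-2AM-loaded HEK293 cells transfected with human α1A were preincubated for 180 s. Compound (sample plate 10^−5 to 10^−12 M) was added after ~30 s of 340/380 nm excitation ratio reading (500 nm emission, 2-s intervals), followed by 270 s more reading. Ca flux is the peak height: maximum ratio after addition minus the pre-addition ratio.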

[5] = biological target: T4, human β1-adrenergic receptor (Homo sapiens, UniProt P08588); assay: Test Case 2-B: human β1-adrenergic receptor agonist activity; format: cell-based; details: for Emax: read-out: β1 receptor I.A.; for β1 receptor I.A.: Test Case 2-B, maximum response of isoproterenol = 100%
T4 construct: expressed in transfected cells; host or cells: CHO (Chinese hamster ovary) cells, pcDNA3
Description: Measurement of Human β1-Adrenergic Receptor Agonist Activity
The human β1-adrenergic receptor agonist activity is measured by the same method as in Test Case 1-B using CHO (Chinese hamster ovary) cells transfected by a human β1 gene inserted in pcDNA3 (Invitrogen).

[6] = system: Male C57BL/6 Cr mice; assay: Test Case 10: mouse piloerection test; format: in vivo
Description: Male C57BL/6 Cr mice (Japan SLC) are used. The dissolved compound is administered rapidly via a caudal vein. The animal is placed on the observation stand 5, 15, 30, and 60 minutes after administration, and the state of piloerection is observed. The state of piloerection is evaluated by the following 7-level scoring system according to the examples by the method of Irwin (Psychopharmacologia 1968, 13; 222-257).
Scoring system: “Score 0”: No piloerection at all; “Score 1”: Slight piloerection (piloerection on part of the body such as the back or neck); “Score 2”: Moderate piloerection (piloerection over the entire body); “Score 3”: Marked piloerection (piloerection over the entire body, conspicuous to the extent that the skin can be seen).
“Score 0.5” is between “Score 0” and “Score 1” “Score 1.5” is between […]. “Score 2.5” is between “Score 2” and “Score 3.”

[7] = anesthetized male SD rats, 3 mg/kg intravenous over 30 seconds, maximum change, mean±standard deviation
[8] = 10 mg/kg i.v., n=4, observation time 5 min, Score 0
[9] = 10 mg/kg i.v., n=4, observation time 5 min
[10] = 10 mg/kg i.v., n=4, observation time 15 min, Score 0
[11] = 10 mg/kg i.v., n=4, observation time 15 min
[12] = 10 mg/kg i.v., n=4, observation time 30 min, Score 0
[13] = 10 mg/kg i.v., n=4, observation time 30 min
[14] = 10 mg/kg i.v., n=4, observation time 60 min, Score 0

T4 sequence (P08588 whole entry): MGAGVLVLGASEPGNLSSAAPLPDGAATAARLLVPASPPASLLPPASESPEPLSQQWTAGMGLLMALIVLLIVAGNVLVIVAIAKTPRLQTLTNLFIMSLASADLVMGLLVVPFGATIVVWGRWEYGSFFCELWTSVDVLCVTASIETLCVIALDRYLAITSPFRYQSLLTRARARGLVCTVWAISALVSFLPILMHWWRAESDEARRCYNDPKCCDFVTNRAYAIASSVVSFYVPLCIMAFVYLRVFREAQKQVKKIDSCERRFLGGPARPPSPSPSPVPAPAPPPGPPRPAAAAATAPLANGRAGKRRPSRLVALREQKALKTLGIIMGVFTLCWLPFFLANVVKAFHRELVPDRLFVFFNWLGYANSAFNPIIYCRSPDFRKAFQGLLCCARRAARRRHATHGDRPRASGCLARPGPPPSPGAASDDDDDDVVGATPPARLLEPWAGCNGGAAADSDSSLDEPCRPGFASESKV
T1 sequence (P13945 whole entry): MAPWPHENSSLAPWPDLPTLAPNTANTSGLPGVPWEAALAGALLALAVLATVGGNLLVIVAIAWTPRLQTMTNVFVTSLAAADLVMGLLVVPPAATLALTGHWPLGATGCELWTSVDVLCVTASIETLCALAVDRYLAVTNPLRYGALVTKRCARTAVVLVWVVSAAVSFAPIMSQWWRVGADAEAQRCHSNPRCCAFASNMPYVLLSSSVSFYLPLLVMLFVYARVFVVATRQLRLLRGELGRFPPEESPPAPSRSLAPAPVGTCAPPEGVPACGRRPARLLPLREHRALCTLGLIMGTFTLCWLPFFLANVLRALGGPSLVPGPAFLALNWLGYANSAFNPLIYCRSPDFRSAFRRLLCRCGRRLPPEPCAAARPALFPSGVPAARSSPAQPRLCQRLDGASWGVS
T2 sequence (P07550 whole entry): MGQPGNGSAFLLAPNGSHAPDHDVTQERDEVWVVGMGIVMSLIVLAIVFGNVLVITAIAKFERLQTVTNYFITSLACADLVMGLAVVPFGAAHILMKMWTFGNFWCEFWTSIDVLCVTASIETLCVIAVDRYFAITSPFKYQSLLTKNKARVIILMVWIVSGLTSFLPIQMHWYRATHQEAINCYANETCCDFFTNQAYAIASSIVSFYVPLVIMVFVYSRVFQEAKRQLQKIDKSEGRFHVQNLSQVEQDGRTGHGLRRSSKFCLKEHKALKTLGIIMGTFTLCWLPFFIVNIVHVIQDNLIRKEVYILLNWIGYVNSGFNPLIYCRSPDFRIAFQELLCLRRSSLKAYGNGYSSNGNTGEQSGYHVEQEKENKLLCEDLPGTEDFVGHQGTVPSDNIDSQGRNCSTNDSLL

SMILES | Emax [1] | pEC50 [1] | Emax [2] | increase in MBP (%) [3, 7] | Emax [4] | Emax [5] | number of experimental animals matching Score 0 (no piloerection) [6, 8] | number of experimental animals matching Score 0.5 [6, 9] | number of experimental animals matching Score 0 (no piloerection) [6, 10] | number of experimental animals matching Score 0.5 [6, 11] | number of experimental animals matching Score 0 (no piloerection) [6, 12] | number of experimental animals matching Score 0.5 [6, 13] | number of experimental animals matching Score 0 (no piloerection) [6, 14] | β3 receptor I.A. [1] | β2 receptor I.A. [2] | increase in MBP (%) ([3]; rat, in vivo, iv, 3 mg/kg) | α1A receptor I.A. [4] | β1 receptor I.A. [5] | number of experimental animals matching Score 0 (no piloerection) ([6]; in vivo, iv, 10 mg/kg) | number of experimental animals matching Score 0.5 ([6]; 10 mg/kg i.v., n=4, observation time 60 min)
Cc1n[nH]c2cc(OCCNC[C@H](O)c3cccc(NS(=O)(=O)c4cnn(C)c4)c3)ccc12 [ex79, (R)-N-(3-(1-hydroxy-2-(2-(3-methylindazol-6-yloxy)ethylamino)ethyl)phenyl)-1-methyl-pyrazole-4-sulfonamide] | 84% | 7.27 | 7% | 4.2 ± 1.8% | 0% | 7% | 3 | 1 | 3 | 1 | 3 | 1 | 4 |  |  |  |  |  |  | 
COc1n[nH]c2cc(OCCNC[C@H](O)c3cccc(NS(=O)(=O)c4ccsc4)c3)ccc12 [ex46, (R)-N-(3-(1-hydroxy-2-(2-(3-methoxyindazol-6-yloxy)-ethylamino)ethyl)phenyl)thio-phene-3-sulfonamide] |  | 8.62 |  |  |  |  |  |  |  |  |  |  |  | 78% | −2% | 5.6 ± 1.1% | 0% | 5% | 4 | 
O=S(=O)(Nc1cccc([C@@H](O)CNCCOc2ccc3c(C4CC4)n[nH]c3c2)c1)C1CC1 [ex212] | 95% | 7.54 | 15% | 2.1 ± 1.7% | 0% | 6% | 4 |  | 4 |  | 4 |  | 4 |  |  |  |  |  |  | 
COc1n[nH]c2cc(OCCNC[C@H](O)c3cccc(NS(=O)(=O)c4ccccc4F)c3)ccc12 [ex5, (R)-2-fluoro-N-(3-(1-hydroxy-2-(2-(3-methoxyindazol-6-yloxy)ethylamino)ethyl)phenyl)benzenesulfonamide] | 90% | 7.05 | 0% | 5.1 ± 2.4% | 0% | 5% | 2 | 2 | 2 | 2 | 2 | 2 | 2 |  |  |  |  |  |  | 2
COc1n[nH]c2cc(OCCNC[C@H](O)c3cccc(NS(=O)(=O)c4cccnc4)c3)ccc12 [ex44, (R)-N-(3-(1-hydroxy-2-(2-(3-methoxyindazol-6-yloxy)-ethylamino)ethyl)phenyl)py-ridine-3-sulfonamide] |  | 7.89 |  |  |  |  |  |  |  |  |  |  |  | 58% | 5% | 5.7 ± 3.0% | 0% | 9% | 4 | 
Cc1n[nH]c2cc(OCCNC[C@H](O)c3cccc(NS(=O)(=O)c4cc(N)ccc4F)c3)ccc12 [ex61] | 64% | 9.70 | -3% | 4.7 ± 1.2% | 0% | 17% | 4 |  | 4 |  | 4 |  | 4 |  |  |  |  |  |  | 
COc1n[nH]c2cc(OCCNC[C@H](O)c3cccc(NS(=O)(=O)c4cccs4)c3)ccc12 [ex45, (R)-N-(3-(1-hydroxy-2-(2-(3-methoxyindazol-6-yloxy)-ethylamino)ethyl)phenyl)thio-phene-2-sulfonamide] |  | 8.62 |  |  |  |  |  |  |  |  |  |  |  | 80% | 2% | 3.9 ± 2.1% | 0% | 9% | 1 | 
